# Measured values published in patent publication US9074014B2 (Ipsen Pharma S.A.S., priority 2008, dated 2015).
# Where a SMILES comes first, the peptide text is derived from it. Where no end group is shown, it is not given here. [ ]: non-standard residue; d: D form. Ac6c = NC1(C(=O)O)CCCCC1; Nle = CCCC[C@H](N)C(=O)O; Ac5c = NC1(C(=O)O)CCCC1; Aib = CC(C)(N)C(=O)O
# Legend:
# [1] = biological target: T1, human recombinant GIP receptor (Homo sapiens, UniProt P48546); assay: In vitro hGIP receptor binding assay ([125I]GIP displacement, CHO-K1 membranes)
# T1 construct: expressed in transfected cells; host or cells: CHO-K1 clonal cells (membranes)
# T1 sequence (P48546 22-466): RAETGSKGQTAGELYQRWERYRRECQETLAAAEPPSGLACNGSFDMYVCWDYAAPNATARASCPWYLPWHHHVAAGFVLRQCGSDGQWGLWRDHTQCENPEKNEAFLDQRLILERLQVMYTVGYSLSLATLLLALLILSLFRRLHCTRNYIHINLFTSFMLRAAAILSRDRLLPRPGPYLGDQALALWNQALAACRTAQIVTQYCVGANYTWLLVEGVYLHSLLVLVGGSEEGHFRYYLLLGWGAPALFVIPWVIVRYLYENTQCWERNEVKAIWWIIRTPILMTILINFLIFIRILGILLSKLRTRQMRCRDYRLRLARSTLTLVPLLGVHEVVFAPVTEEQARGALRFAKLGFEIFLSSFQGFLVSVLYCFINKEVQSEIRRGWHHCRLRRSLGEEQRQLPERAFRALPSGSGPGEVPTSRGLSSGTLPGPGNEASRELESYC
# Description: A. In Vitro hGIP Receptor Binding Assay
# [2] = Human plasma half-life assay; assay type: in vitro ADME; conditions: human plasma, 37° C., LC-MS; read-out: Human Plasma T½ (converted)
# [3] = Rat plasma half-life assay; assay type: in vitro ADME; conditions: rat plasma, 37° C., LC-MS; read-out: Rat Plasma T½ (converted)
compound,measurement,setting,value
"CC[C@H](C)[C@H](NC(=O)[C@H](CCCCN)NC(=O)[C@H](CC(=O)O)NC(=O)[C@H](CCSC)NC(=O)C(C)(C)NC(=O)[C@@H](NC(=O)[C@H](CO)NC(=O)[C@H](Cc1ccc(O)cc1)NC(=O)[C@H](CC(=O)O)NC(=O)[C@H](CO)NC(=O)[C@@H](NC(=O)[C@H](Cc1ccccc1)NC(=O)[C@@H](NC(=O)CNC(=O)[C@H](CCC(=O)O)NC(=O)C(C)(C)NC(=O)[C@@H](N)Cc1ccc(O)cc1)[C@@H](C)O)[C@@H](C)CC)[C@@H](C)CC)C(=O)N[C@@H](Cc1c[nH]cn1)C(=O)N[C@@H](CCC(N)=O)C(=O)N[C@@H](CCC(N)=O)C(=O)N[C@@H](CC(=O)O)C(=O)N[C@@H](Cc1ccccc1)C(=O)N[C@H](C(=O)N[C@@H](CC(N)=O)C(=O)N[C@@H](Cc1c[nH]c2ccccc12)C(=O)N[C@@H](CC(C)C)C(=O)N[C@@H](CC(C)C)C(=O)N[C@@H](C)C(=O)N[C@@H](CCC(N)=O)C(=O)N[C@@H](CCCCN)C(=O)NCC(=O)N[C@@H](CCCCN)C(=O)N[C@@H](CCCCN)C(=O)N[C@@H](CC(N)=O)C(=O)N[C@@H](CC(=O)O)C(=O)N[C@@H](Cc1c[nH]c2ccccc12)C(=O)N[C@@H](CCCCN)C(=O)N[C@@H](Cc1c[nH]cn1)C(=O)N[C@@H](CC(N)=O)C(=O)N[C@H](C(=O)N[C@H](C(=O)N[C@@H](CCC(N)=O)C(=O)O)[C@@H](C)O)[C@@H](C)CC)C(C)C [Example 60, (Aib^2, 13)hGIP(1-42)-OH]",Ki,[1],0.05 nM
same,half-life at 0.1 mg/ml,[2],1560 min
same,half-life at 0.1 mg/ml,[3],630 min
"Y[Aib]EGTF[Ac6c]SDYSI[Aib][Nle]DKIHQQDFVNWLLAQKGKKNDWKHNITQ-OH [Example 21, (Aib^2, 13, A6c^7, Nle^14)hGIP(1-42)-OH]",Ki,[1],0.3 nM
same,half-life at 0.1 mg/ml,[2],> 2880 min
same,half-life at 0.1 mg/ml,[3],738 min
"CC[C@H](C)[C@H](NC(=O)[C@H](CCCCN)NC(=O)[C@H](CC(=O)O)NC(=O)[C@H](CCSC)NC(=O)[C@H](C)NC(=O)[C@@H](NC(=O)C1(NC(=O)[C@H](Cc2ccc(O)cc2)NC(=O)[C@H](CC(=O)O)NC(=O)[C@H](CO)NC(=O)[C@@H](NC(=O)[C@H](Cc2ccccc2)NC(=O)[C@@H](NC(=O)CNC(=O)[C@H](CCC(=O)O)NC(=O)C(C)(C)NC(=O)[C@@H](N)Cc2ccc(O)cc2)[C@@H](C)O)[C@@H](C)CC)CCCC1)[C@@H](C)CC)C(=O)N[C@@H](Cc1c[nH]cn1)C(=O)N[C@@H](CCC(N)=O)C(=O)N[C@@H](CCC(N)=O)C(=O)N[C@@H](CC(=O)O)C(=O)N[C@@H](Cc1ccccc1)C(=O)N[C@H](C(=O)N[C@@H](CC(N)=O)C(=O)N[C@@H](Cc1c[nH]c2ccccc12)C(=O)N[C@@H](CC(C)C)C(=O)N[C@@H](CC(C)C)C(=O)N[C@@H](C)C(=O)N[C@@H](CCC(N)=O)C(=O)N[C@@H](CCCCN)C(N)=O)C(C)C [Example 46, (Aib^2, A5c^11)hGIP(1-30)-NH2] (H-Y[Aib]EGTFISDY[Ac5c]IAMDKIHQQDFVNWLLAQK-NH2; N-terminus assumed)",Ki,[1],0.09 nM
same,half-life at 0.1 mg/ml,[2],732 min
same,half-life at 0.1 mg/ml,[3],> 3240 min
"Y[Aib]EGTF[Ac6c]SDYSIAMDKIHQQDFVNWLLAQKGKKNDWKHNITQ-OH [Example 43, (Aib^2, A6c^7)hGIP(1-42)-OH]",Ki,[1],0.3 nM
same,half-life at 0.1 mg/ml,[2],528 min
same,half-life at 0.1 mg/ml,[3],462 min
"CC[C@H](C)[C@H](NC(=O)[C@H](CCCCN)NC(=O)[C@H](CC(=O)O)NC(=O)[C@H](CCSC)NC(=O)[C@H](C)NC(=O)[C@@H](NC(=O)C1(NC(=O)[C@H](Cc2ccc(O)cc2)NC(=O)[C@H](CC(=O)O)NC(=O)[C@H](CO)NC(=O)[C@@H](NC(=O)[C@H](Cc2ccccc2)NC(=O)[C@@H](NC(=O)CNC(=O)[C@H](CCC(=O)O)NC(=O)[C@@H](C)NC(=O)[C@@H](N)Cc2ccc(O)cc2)[C@@H](C)O)[C@@H](C)CC)CCCC1)[C@@H](C)CC)C(=O)N[C@@H](Cc1c[nH]cn1)C(=O)N[C@@H](CCC(N)=O)C(=O)N[C@@H](CCC(N)=O)C(=O)N[C@@H](CC(=O)O)C(=O)N[C@@H](Cc1ccccc1)C(=O)N[C@H](C(=O)N[C@@H](CC(N)=O)C(=O)N[C@@H](Cc1c[nH]c2ccccc12)C(=O)N[C@@H](CC(C)C)C(=O)N[C@@H](CC(C)C)C(=O)N[C@@H](C)C(=O)N[C@@H](CCC(N)=O)C(=O)N[C@@H](CCCCN)C(=O)N[C@@H](Cc1c[nH]cn1)C(N)=O)C(C)C [Example 122, (D-Ala^2, A5c^11, His^31)hGIP(1-31)-NH2] (H-Y[dA]EGTFISDY[Ac5c]IAMDKIHQQDFVNWLLAQKH-NH2; N-terminus assumed)",Ki,[1],0.87 nM
"CCCC[C@H](NC(=O)[C@H](C)NC(=O)[C@@H](NC(=O)[C@H](CO)NC(=O)[C@H](Cc1ccc(O)cc1)NC(=O)[C@H](CC(=O)O)NC(=O)[C@H](CO)NC(=O)[C@@H](NC(=O)[C@H](Cc1ccccc1)NC(=O)[C@@H](NC(=O)CNC(=O)[C@H](CCC(=O)O)NC(=O)C1(NC(=O)[C@@H](N)Cc2ccc(O)cc2)CCCC1)[C@@H](C)O)[C@@H](C)CC)[C@@H](C)CC)C(=O)N[C@@H](CC(=O)O)C(=O)N[C@@H](CCCCN)C(=O)N[C@H](C(=O)N[C@@H](Cc1c[nH]cn1)C(=O)N[C@@H](CCC(N)=O)C(=O)N[C@@H](CCC(N)=O)C(=O)N[C@@H](CC(=O)O)C(=O)N[C@@H](Cc1ccccc1)C(=O)N[C@H](C(=O)N[C@@H](CC(N)=O)C(=O)N[C@@H](Cc1c[nH]c2ccccc12)C(=O)N[C@@H](CC(C)C)C(=O)N[C@@H](CC(C)C)C(=O)N[C@@H](C)C(=O)N[C@@H](CCC(N)=O)C(=O)N[C@@H](CCCCN)C(=O)NCC(=O)N[C@@H](CCCCN)C(=O)N[C@@H](CCCCN)C(=O)N[C@@H](CC(N)=O)C(=O)N[C@@H](CC(=O)O)C(=O)N[C@@H](Cc1c[nH]c2ccccc12)C(=O)N[C@@H](CCCCN)C(=O)N[C@@H](Cc1c[nH]cn1)C(=O)N[C@@H](CC(N)=O)C(=O)N[C@H](C(=O)N[C@H](C(=O)N[C@@H](CCC(N)=O)C(=O)O)[C@@H](C)O)[C@@H](C)CC)C(C)C)[C@@H](C)CC [Example 40, (A5c^2, Nle^14)hGIP(1-42)-OH]",Ki,[1],15.9 nM
same,half-life at 0.1 mg/ml,[2],462 min
same,half-life at 0.1 mg/ml,[3],294 min
"Y[Aib]EGTF[Ac6c]SDYSIAMDKIHQQDFVNWLLAQKGKKNDWKHNI[Aib]Q-OH [Example 23, (Aib^2, 41, A6c^7)hGIP(1-42)-OH]",Ki,[1],0.87 nM
same,half-life at 0.1 mg/ml,[2],> 2880 min
same,half-life at 0.1 mg/ml,[3],402 min
"CC[C@H](C)[C@H](NC(=O)[C@H](CCCCN)NC(=O)[C@H](CC(=O)O)NC(=O)[C@H](CCSC)NC(=O)[C@H](C)NC(=O)[C@@H](NC(=O)C1(NC(=O)[C@H](Cc2ccc(O)cc2)NC(=O)[C@H](CC(=O)O)NC(=O)[C@H](CO)NC(=O)[C@@H](NC(=O)[C@H](Cc2ccccc2)NC(=O)[C@@H](NC(=O)CNC(=O)[C@@H]2CCCN2C(=O)[C@H](C)NC(=O)[C@@H](N)Cc2ccc(O)cc2)[C@@H](C)O)[C@@H](C)CC)CCCC1)[C@@H](C)CC)C(=O)N[C@@H](Cc1c[nH]cn1)C(=O)N[C@@H](CCC(N)=O)C(=O)N[C@@H](CCC(N)=O)C(=O)N[C@@H](CC(=O)O)C(=O)N[C@@H](Cc1ccccc1)C(=O)N[C@H](C(=O)N[C@@H](CC(N)=O)C(=O)N[C@@H](Cc1c[nH]c2ccccc12)C(=O)N[C@@H](CC(C)C)C(=O)N[C@@H](CC(C)C)C(=O)N[C@@H](C)C(=O)N[C@@H](CCC(N)=O)C(=O)N[C@@H](CCCCN)C(N)=O)C(C)C [Example 98, (Pro^3, A5c^11)hGIP(1-30)-NH2] (H-YAPGTFISDY[Ac5c]IAMDKIHQQDFVNWLLAQK-NH2; N-terminus assumed)",Ki,[1],65.9 nM
"CC[C@H](C)[C@H](NC(=O)[C@H](CO)NC(=O)[C@H](Cc1ccc(O)cc1)NC(=O)[C@H](CC(=O)O)NC(=O)[C@H](CO)NC(=O)C1(NC(=O)[C@H](Cc2ccccc2)NC(=O)[C@@H](NC(=O)CNC(=O)[C@@H]2CCCN2C(=O)C(C)(C)NC(=O)[C@@H](N)Cc2ccc(O)cc2)[C@@H](C)O)CCCCC1)C(=O)N[C@@H](C)C(=O)N[C@@H](CCSC)C(=O)N[C@@H](CC(=O)O)C(=O)N[C@@H](CCCCN)C(=O)N[C@H](C(=O)N[C@@H](Cc1c[nH]cn1)C(=O)N[C@@H](CCC(N)=O)C(=O)N[C@@H](CCC(N)=O)C(=O)N[C@@H](CC(=O)O)C(=O)N[C@@H](Cc1ccccc1)C(=O)N[C@H](C(=O)N[C@@H](CC(N)=O)C(=O)N[C@@H](Cc1c[nH]c2ccccc12)C(=O)N[C@@H](CC(C)C)C(=O)N[C@@H](CC(C)C)C(=O)N[C@@H](C)C(=O)N[C@@H](CCC(N)=O)C(=O)N[C@@H](CCCCN)C(N)=O)C(C)C)[C@@H](C)CC [Example 109, (Aib^2, Pro^3, A6c^7)hGIP(1-30)-NH2]",half-life at 0.1 mg/ml,[2],1630 min
same,half-life at 0.1 mg/ml,[3],2870 min
